Reference: US20070293475A1, “ARYL AND HETEROARYL TETRAHYDROBENZAZEPINE DERIVATIVES AND THEIR USE FOR TREATING GLAUCOMA” (ALCON MAN[…]., priority 2006, published 2007)

What was measured:
r5-HT2A = target: T1, r5-HT2A (Rattus norvegicus, UniProt P14842); assay: r5-HT2A functional assay: FLIPR, intracellular calcium mobilization in A7r5 cells; format: cell-based; details: for EC50: FLIPR, rat A7r5 vascular smooth muscle cells, read-out: r5-HT 2A EC50; for Emax: percentage of maximum 5-HT-induced response, A7r5 cells, read-out: r5-HT 2A (Emax)
T1 construct: endogenous in cells; host or cells: A7r5 rat vascular smooth muscle cells
T1 sequence (P14842 whole entry): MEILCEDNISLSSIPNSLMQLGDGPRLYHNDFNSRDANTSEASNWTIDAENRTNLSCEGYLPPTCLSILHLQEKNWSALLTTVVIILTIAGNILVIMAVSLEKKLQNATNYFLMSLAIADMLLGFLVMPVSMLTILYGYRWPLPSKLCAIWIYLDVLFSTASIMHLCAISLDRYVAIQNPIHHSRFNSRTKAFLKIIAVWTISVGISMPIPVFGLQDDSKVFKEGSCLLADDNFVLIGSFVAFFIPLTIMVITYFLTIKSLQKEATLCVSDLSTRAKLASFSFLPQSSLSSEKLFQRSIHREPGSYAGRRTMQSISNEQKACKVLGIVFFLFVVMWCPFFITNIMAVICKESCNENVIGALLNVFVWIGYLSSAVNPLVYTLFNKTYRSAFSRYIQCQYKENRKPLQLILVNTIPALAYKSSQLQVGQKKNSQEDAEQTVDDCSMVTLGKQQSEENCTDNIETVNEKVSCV
Procedure: r5-HT2A Functional Assay: FLIPR
Rat Vascular Smooth Muscle Cells
(§1) The receptor-mediated mobilization of intracellular calcium ([Ca^2+]i) was studied using the Fluorescence Imaging Plate Reader (FLIPR) instrument. Rat vascular smooth muscle cells, A7r5, were grown in a normal media of DMEM/10% FBS and 10 μg/ml gentamycin. Confluent cell monolayers were trypsinized, pelleted, and re-suspended in normal media. Cells were seeded in a 50 μL volume at a density of 20,000 cells per well in a black wall, 96-well tissue culture plate and grown for 2 days. On the day of the experiment, one vial of FLIPR Calcium Assay Kit dye was re-suspended in 50 ml of a FLIPR buffer consisting of Hank's Balanced Salt Solution (HBSS), 20 mM HEPES, and 2.5 mM probenecid, pH 7.4. Cells were loaded with the calcium-sensitive dye by addition of an equal volume (50 μl) to each well of the 96-well plate and incubated with dye for 1 h at 23° C. Typically, test compounds were stored at […] in 50% DMSO/50% Ethanol solvent. Compounds were diluted 1:50 in 20% DMSO/20% Ethanol. For dose-response experiments, compounds were diluted 1:50 in FLIPR buffer and serially diluted 1:10 to give a 5- or 8-point dose-response curve.
(§2) At the beginning of an experimental run, a signal test was performed to check the basal fluorescence signal from the dye-loaded cells and the uniformity of the signal across the plate. The basal fluorescence was adjusted between 8000-12000 counts by modifying the exposure time, the camera F-stop, or the laser power. The instrument settings for a typical assay were as follows: laser power 0.3-0.6 W, camera F-stop F/2, and exposure time 0.4 sec. An aliquot (25 μl) of the test compound was added to the existing 100 μl dye-loaded cells at a dispensing speed of 50 μl/sec. Fluorescence data were collected in real-time at 1.0 sec intervals for the first 60 sec and at 6.0 sec intervals for an additional 120 sec. Responses were measured as peak fluorescence intensity minus basal and where appropriate were expressed as a percentage of a maximum 5-HT-induced response.

[1] = target: T2, recombinant rat 5-HT2C receptor (Rattus norvegicus, UniProt P08909); assay: r5-HT2C functional assay: FLIPR, SR3T3 cells; format: cell-based; details: for EC50: FLIPR, SR3T3 cells expressing recombinant rat 5-HT2C, read-out: r5-HT 2C EC50; for Emax: SR-3T3, percentage of maximum 5-HT-induced response, SR3T3 cells, read-out: r5-HT 2C (Emax)
T2 construct: expressed in transfected cells; host or cells: SR3T3 cells
T2 sequence (P08909 33-460): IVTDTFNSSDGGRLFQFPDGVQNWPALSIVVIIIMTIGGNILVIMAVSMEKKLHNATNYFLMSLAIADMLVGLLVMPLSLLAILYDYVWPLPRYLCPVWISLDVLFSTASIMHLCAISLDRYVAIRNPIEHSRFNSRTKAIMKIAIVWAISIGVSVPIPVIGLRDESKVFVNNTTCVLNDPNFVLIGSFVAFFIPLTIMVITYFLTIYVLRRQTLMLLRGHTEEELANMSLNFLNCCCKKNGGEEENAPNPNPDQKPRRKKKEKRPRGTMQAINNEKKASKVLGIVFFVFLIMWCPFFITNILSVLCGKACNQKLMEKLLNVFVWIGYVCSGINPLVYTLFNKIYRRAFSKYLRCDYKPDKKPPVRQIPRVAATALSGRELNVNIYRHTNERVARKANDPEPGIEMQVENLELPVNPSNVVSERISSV
Procedure: as §1, §2
r5-HT2C Functional Assay: FLIPR
This assay were performed as for the r5-HT2A receptor above, except that SR3T3 cells expressing the recombinant rat 5-HT2C receptor were utilized.

[2] = target: T3, human serotonin receptor clone 5-HT2A (Homo sapiens, UniProt P28223); assay: h5-HT2 functional assay, CHO-K1 aequorin luminescence (5-HT2A); format: cell-based; details: for Emax: CHO-K1, relative to the response of α-methyl-5-HT, read-out: h5-HT 2A (Emax); for EC50: CHO-K1 cells, aequorin, Gα16, read-out: h5-HT 2A EC50
T3 construct: expressed in transfected cells; host or cells: CHO-K1 cells stably expressing aequorin and Galpha16
T3 sequence (P28223 whole entry): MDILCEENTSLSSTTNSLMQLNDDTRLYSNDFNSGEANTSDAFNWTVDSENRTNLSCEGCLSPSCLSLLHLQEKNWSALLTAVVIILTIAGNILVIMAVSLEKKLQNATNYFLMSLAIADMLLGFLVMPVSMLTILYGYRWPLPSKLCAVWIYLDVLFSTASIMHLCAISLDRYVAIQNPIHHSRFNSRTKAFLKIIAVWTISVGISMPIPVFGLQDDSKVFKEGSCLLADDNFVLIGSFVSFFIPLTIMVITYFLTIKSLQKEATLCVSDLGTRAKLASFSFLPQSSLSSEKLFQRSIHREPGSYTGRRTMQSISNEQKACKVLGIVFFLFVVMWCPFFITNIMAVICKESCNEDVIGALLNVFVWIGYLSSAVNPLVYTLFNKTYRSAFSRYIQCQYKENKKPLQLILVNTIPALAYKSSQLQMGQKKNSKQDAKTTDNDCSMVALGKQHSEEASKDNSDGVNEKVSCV
Procedure: (§3) Functional response at the 5-HT2 receptor subtypes was determined using CHO-K1 cells stably expressing mitochondrially-targeted bioluminescent aequorin, Gα16, and one of either human serotonin receptor clone 5-HT2A, 5-HT2B , or 5-HT2C. Prior to testing, cells were loaded in suspension with coelenterazine for 4-16 hours and directly injected onto different concentrations of the test compound. Light emitted from the cells was measured 20-30 seconds following receptor activation. A luminometer (Hamamatsu, FDSS-6000) was used to record luminescence in response to the test compound. The mean response signal at each of 8-11 different concentrations was integrated to provide an estimation of receptor activation, expressed as the EC50 value. The efficacy of the response (Emax) at the 5-HT2A and 5-HT2B receptors is expressed relative to the response of α-methyl-5-HT under the same assay conditions while the efficacy at 5-HT2C is expressed relative to the response of 5-HT.

[3] = target: T4, human serotonin receptor clone 5-HT2B (Homo sapiens, UniProt P41595); assay: h5-HT2 functional assay, CHO-K1 aequorin luminescence (5-HT2B); format: cell-based; details: for Emax: CHO-K1, relative to the response of α-methyl-5-HT, read-out: h5-HT 2B (Emax); for EC50: CHO-K1 cells, aequorin, Gα16, read-out: h5-HT 2B EC50
T4 construct: expressed in transfected cells; host or cells: CHO-K1 cells stably expressing aequorin and Galpha16
T4 sequence (P41595 whole entry): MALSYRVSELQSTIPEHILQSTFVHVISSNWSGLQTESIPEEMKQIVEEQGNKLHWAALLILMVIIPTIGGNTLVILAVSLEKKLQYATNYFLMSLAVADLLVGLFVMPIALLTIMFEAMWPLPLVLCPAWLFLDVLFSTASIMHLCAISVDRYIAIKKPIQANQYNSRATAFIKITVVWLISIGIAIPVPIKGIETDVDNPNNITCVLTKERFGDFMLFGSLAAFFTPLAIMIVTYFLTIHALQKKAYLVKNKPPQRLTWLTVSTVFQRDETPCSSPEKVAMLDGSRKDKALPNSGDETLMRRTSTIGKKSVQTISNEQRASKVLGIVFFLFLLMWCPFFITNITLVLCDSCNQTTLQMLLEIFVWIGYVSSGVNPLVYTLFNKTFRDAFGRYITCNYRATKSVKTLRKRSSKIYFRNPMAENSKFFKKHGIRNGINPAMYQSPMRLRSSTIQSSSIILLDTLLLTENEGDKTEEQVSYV
Procedure: as §3

[4] = target: T5, human serotonin receptor clone 5-HT2C (Homo sapiens, UniProt P28335); assay: h5-HT2 functional assay, CHO-K1 aequorin luminescence (5-HT2C); format: cell-based; details: for Emax: CHO-K1, relative to the response of 5-HT, read-out: h5-HT 2C (Emax); for EC50: CHO-K1 cells, aequorin, Gα16, read-out: h5-HT 2C EC50
T5 construct: expressed in transfected cells; host or cells: CHO-K1 cells stably expressing aequorin and Galpha16
T5 sequence (P28335 33-458): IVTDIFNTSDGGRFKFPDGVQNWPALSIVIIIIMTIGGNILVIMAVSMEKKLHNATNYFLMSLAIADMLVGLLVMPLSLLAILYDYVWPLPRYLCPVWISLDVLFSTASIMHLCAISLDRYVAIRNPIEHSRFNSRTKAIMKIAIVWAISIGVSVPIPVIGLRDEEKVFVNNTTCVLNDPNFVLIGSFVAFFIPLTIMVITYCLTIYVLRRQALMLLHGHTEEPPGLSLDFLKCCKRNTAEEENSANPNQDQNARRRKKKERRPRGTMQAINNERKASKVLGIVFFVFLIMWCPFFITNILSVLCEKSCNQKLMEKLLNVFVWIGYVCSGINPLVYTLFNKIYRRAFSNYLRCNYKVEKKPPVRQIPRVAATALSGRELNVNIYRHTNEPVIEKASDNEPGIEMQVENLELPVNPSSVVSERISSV
Procedure: as §3

[5] = test system: Lasered (Hypertensive) Eyes of Conscious Cynomolgus Monkeys; assay: Acute IOP response in lasered (hypertensive) eyes of conscious cynomolgus monkeys; format: in vivo; details: for IOP change (mmHg): value in parentheses
Procedure: Acute IOP Response in Lasered (Hypertensive) Eyes of Conscious Cynomolgus Monkeys
Intraocular pressure (IOP) can be determined with an Alcon Pneumatonometer after light corneal anesthesia with 0.1% proparacaine. Eyes are washed with saline after each measurement. After a baseline IOP measurement, test compound is instilled in one 30 μL aliquot to the right eyes only of nine cynomolgus monkeys. Vehicle is instilled in the right eyes of six is additional animals. Subsequent IOP measurements are taken at 1, 3, and 6 hours.
The above method was used to determine the IOP lowering efficacy of Compound 1. All eyes were pretreated with 1 drop of 0.5% proparacaine to address discomfort.

[6] = dose 100 μg topical, 1 hr, baseline IOP 38.3 mmHg
[7] = dose 100 μg topical, 3 hr, baseline IOP 38.3 mmHg
[8] = dose 100 μg topical, 6 hr, baseline IOP 38.3 mmHg
[9] = dose 150 μg topical, 1 hr, baseline IOP 40.4 mmHg
[10] = dose 150 μg topical, 3 hr, baseline IOP 40.4 mmHg
[11] = dose 150 μg topical, 6 hr, baseline IOP 40.4 mmHg

| Structure (SMILES) | EC50 (r5-HT2A) [nM] | Emax (r5-HT2A) [%] | EC50 [1] [nM] | Emax [1] [%] | Emax [2] [%] | EC50 [2] [nM] | Emax [3] [%] | EC50 [3] [nM] | Emax [4] [%] | EC50 [4] [nM] | further results |
| --- | --- | --- | --- | --- | --- | --- | --- | --- | --- | --- | --- |
| COc1cccc(OCc2ccc3c(c2)CCNCC3)c1 [Example 6, 7-[(3-methoxyphenoxy)methyl]-2,3,4,5-tetrahydro-1H-3-benzazepine] | 69 | 35 | 91 | 89 | 105 | 0.4 | 61 | 417 | 107 | 3.9 | – |
| COc1cccc(COc2cc3c(cc2C)CCNCC3)c1 [Example 8, 7-[(3-methoxybenzyl)oxy]-8-methyl-2,3,4,5-tetrahydro-1H-3-benzazepine] | 1920 | 48 | 250 | 102 | 102 | 2.4 | 63 | 230 | 101 | 4.5 | – |
| COc1cccc(Cc2ccc3c(c2)CCNCC3)c1 [Example 1, 7-(3-Methoxy-benzyl)-2,3,4,5-tetrahydro-1H-benzo[d]azepine] | 386 | 39 | 82 | 100 | 102 | 1.5 | 87 | 390 | 105 | 1.1 | % IOP change [5, 6]: −16.5%; IOP change (mmHg) [5, 6]: (6.6) mmHg; % IOP change [5, 7]: −33.1%; IOP change (mmHg) [5, 7]: (13.1) mmHg; % IOP change [5, 8]: −42.5%; IOP change (mmHg) [5, 8]: (16.8) mmHg; % IOP change [5, 9]: −15.6%; IOP change (mmHg) [5, 9]: (6.1) mmHg; % IOP change [5, 10]: −29.5%; IOP change (mmHg) [5, 10]: (12.3) mmHg; % IOP change [5, 11]: −37.8%; IOP change (mmHg) [5, 11]: (15.6) mmHg |
| Oc1cccc(OCc2ccc3c(c2)CCNCC3)c1 [Example 7, 3-(2,3,4,5-tetrahydro-1H-3-benzazepin-7-ylmethoxy)phenol] | 440 | 40 | 65 | 92 | – | – | – | – | – | – | – |
| Oc1cccc(Cc2ccc3c(c2)CCNCC3)c1 [Example 2, 3-(2,3,4,5-Tetrahydro-1H-benzo[d]azepin-7-ylmethyl)-phenol] | > 1000 | – | 120 | 100 | 98 | 31 | 35 | 1240 | 109 | 8.8 | – |
| COc1cc(Cc2ccc3c(c2)CCNCC3)cc(OC)c1 [Example 3, 7-(3,5-Dimethoxy-benzyl)-2,3,4,5-tetrahydro-1H-benzo[d]azepine] | > 10000 | – | 629 | 70 | 104 | 16.9 | 6 | > 10000 | 105 | 20 | – |
